Data reported in publication PMC9652805, “Design, synthesis and evaluation of novel 1,2,4-triazole derivatives as promising anticancer agents” (BMC Chemistry, 2022).

How the values were obtained:
[1] = test system: A549 cells (human lung cancer cell line); assay: MTT cytotoxicity assay, A549; type: cell-based; conditions: Homo sapiens, A549, 72 h, mean ± SEM
Experimental: (§1) Cell cultures were obtained from the human lung cancer cell line (A549), human cervical cancer cell line (Hela), human breast cancer cell line (MCF-7) and Normal cells isolated from human lung tissue (MRC-5) taken from the National Cell Bank of Iran (NCBI, Pasteur Institute, Tehran, Iran). All cells were cultured in RPMI-1640 medium supplemented with 10% FBS, antibiotics (penicillin 100 U/mL, streptomycin 100 µg/mL), at 37 °C in a humidified atmosphere containing 5% CO2.
(§2) Cytotoxic activities of all the synthesized compounds were assessed by standard 3-(4,5-dimethylthiazol-yl)-2,5-diphenyl-tetrazolium bromide (MTT) assay. The assay was performed according to a known protocol. The cells were seeded and plated in 96-well microplates at a density of 1 × 10^4 cells per well in 180 μL complete culture media. After 24 h incubation, the cells were treated with […] of different concentrations of synthesized compounds ranging from 1 × 10^–4 to 1 × 10^–7 M at identical conditions in triplicates. After 72 h, media were replaced with 150 μL media containing 0.5 mg/mL of MTT solution [57]. The plates were incubated at 37 °C for additional four hours. Then, media containing MTT were discarded and 150 μL dimethylsulfoxide (DMSO, > 99%) was added to each well to dissolve the formazan crystals.

[2] = test system: MRC-5 cells (normal cells from human lung tissue); assay: MTT cytotoxicity assay, MRC-5 normal cell line (safety); type: cell-based; conditions: Homo sapiens, MRC5, 72 h, mean ± SEM
Experimental: as §1, §2

[3] = test system: MCF-7 cells (human breast cancer cell line); assay: MTT cytotoxicity assay, MCF-7; type: cell-based; conditions: mean ± SEM
Experimental: as §1, §2

[4] = test system: Hela cells (human cervical cancer cell line); assay: MTT cytotoxicity assay, Hela; type: cell-based; conditions: Homo sapiens, HeLa, 72 h, mean ± SEM
Experimental: as §1, §2

| SMILES | IC50 [1] [µM] | IC50 [2] [µM] | IC50 ([3]; 72 h) [µM] | IC50 ([3]; Homo sapiens, MCF7, 72 h) [µM] | melting point [°C] | IC50 [4] [µM] |
| --- | --- | --- | --- | --- | --- | --- |
| O=C(CC(C(=O)c1ccccc1)n1cncn1)c1ccccc1 (stereo not shown) [Compound 10a, 4-diphenyl-2-(1H-1,2,4-triazol-1-yl) butane-1,4-dione] | 21.1 ± 4.2 | 21.7 ± 1.5 | 6.4 ± 1.7 | 6.43 | 115 to 118 |  |
| O=C(c1ccc(Cl)cc1Cl)C(C(c1ccccc1)c1ccccc1)n1cncn1 (stereo not shown) [Compound 7e, 1-(2,4-dichlorophenyl)-3,3-diphenyl-2-(1H-1,2,4-triazol-1-yl) propan-1-one] | 9.4 ± 1.8 | 27.8 ± 3.7 |  | 4.7 ± 1.4 | 118 to 121 |  |
| O=C(CC(C(=O)c1ccc(Cl)cc1)n1cncn1)c1ccccc1 (stereo not shown) [Compound 10b, 1-(4-chlorophenyl)-4-phenyl-2-(1H-1,2,4-triazol-1-yl) butane-1,4-dione] | 110 ± 1.3 | 259 ± 8.3 |  | 62.6 ± 2.5 | 131 to 133 | 48.3 ± 4.1 |
| O=C(c1ccc(Cl)cc1)C(C(c1ccccc1)c1ccccc1)n1cncn1 (stereo not shown) [Compound 7c, 1-(4-chlorophenyl)-3,3-diphenyl-2-(1H-1,2,4-triazol-1-yl) propan-1-one] | 177 ± 5.9 | 201 ± 9.5 |  | 60 ± 4.9 | 140 to 142 | 81.7 ± 6.3 |
| O=C(c1ccccc1)C(c1ccccc1)C(C(=O)c1ccc(Cl)cc1)n1cncn1 (stereo not shown) [10 h, 1-(4-chlorophenyl)-3,4-diphenyl-2-(1H-1,2,4-triazol-1-yl) butane-1,4-dione] | 112 ± 10.8 | 249 ± 5.8 |  | 89 ± 5.2 | 174 to 176 | 172 ± 7.1 |
| O=C(c1ccccc1)C(Cc1ccccc1)n1cncn1 (stereo not shown) [Compound 7a, 1,3-diphenyl-2-(1H-1,2,4-triazol-1-yl) propan-1-one] | 150 ± 5.3 | > 300 |  | 154 ± 5.8 | 145 to 148 | 92.4 ± 7.3 |
| O=C(c1ccccc1)C(c1ccccc1)C(C(=O)c1ccc(F)cc1)n1cncn1 (stereo not shown) [10 g, 1-(4-fluorophenyl)-3,4-diphenyl-2-(1H-1,2,4-triazol-1-yl) butane-1,4-dione] | 150 ± 4.9 | 257 ± 4.3 |  | 93 ± 3.1 | 154 to 157 | 128 ± 6.1 |
| O=C(c1ccc(Cl)cc1Cl)C(Cc1ccccc1)n1cncn1 (stereo not shown) [Compound 7b, 1-(2,4-dichlorophenyl)-3-phenyl-2-(1H-1,2,4-triazol-1-yl) propan-1-one] | 75.8 ± 4.6 | 72.6 ± 3.4 |  | 23.4 ± 2.6 | 121 to 123 | 7.9 ± 3.1 |
| Brc1ccc(CC(C(c2ccccc2)c2ccccc2)n2cncn2)cc1 (stereo not shown) [Compound 8c, 1-(3-(4-bromophenyl)-1,1-diphenylpropan-2-yl)-1H-1,2,4-triazole] | 104 ± 7.3 | 104 ± 7.3 |  | 52.8 ± 7.4 | 88 to 91 | 79.1 ± 2.5 |
| Clc1ccc(CC(C(c2ccccc2)c2ccccc2)n2cncn2)cc1 (stereo not shown) [Compound 8b, 1-(3-(4-chlorophenyl)-1,1-diphenylpropan-2-yl)-1H-1,2,4-triazole] | 124 ± 3.4 | 279 ± 2.8 |  | 178 ± 2.5 | 93 to 96 | 198 ± 5.5 |
